The values that follow come from PMC6934184, “Selective DNA-PKcs inhibition extends the therapeutic index of localized radiotherapy and chemotherapy” (The Journal of Clinical Investigation, 2019).

This test has as its target T1, PIK3CD/PIK3R1 (p110δ/p85α) (Homo sapiens, UniProt O00329).
T1 construct: purchased Thermo Fisher Scientific (Life Technologies) SelectScreen
Kind of test: SelectScreen Adapta. Type of test: biochemical. Conditions: ATP Km app. The procedure: The in vitro kinase selectivity of NU5455 was determined using the SelectScreen Broad Assay Panel (Thermo Fisher Scientific) involving activity and binding assays (Supplemental Table 1). […] Class IA PI3Ks were measured using the p85α subunit.
Kinase [ATP] % Assay Kinase [ATP] % Assay Kinase [ATP] % Assay Kinase [ATP] % Assay […]
SGK (SGK1) Km app 8.5 Z MAP4K2 (GCK) Km app 2.7 Z TLK2 n/a -0.3 L STK38 (NDR) n/a -5.9 L
MERTK (cMER) Km app 8.3 Z CDK2/cyclin A Km app 2.7 Z TGFBR1 (ALK5) n/a -0.4 L MATK (HYL) Km app -6.3 Z
FYN Km app 8.3 Z EPHA1 Km app 2.7 Z CLK3 Km app -0.5 Z ABL1 E255K Km app -6.6 Z
TEC n/a 8.1 L CDK2/cyclin E1 n/a 2.7 L MAP3K14 (NIK) n/a -0.5 L STK17A (DRAK1) n/a -6.6 L
KIT V654A n/a 8.1 L TESK2 n/a 2.7 L AKT3 (PKB gamma) Km app -0.5 Z JAK2 JH1 JH2 Km app -6.7 Z
ROS1 Km app 8.0 Z SPHK1 Km app 2.7 A MAP3K9 (MLK1) Km app -0.5 Z PRKACB (PRKAC beta) n/a -6.8 L
FGFR3 K650E Km app 7.9 Z AMPK A2/B1/G1 Km app 2.6 Z IKBKB (IKK beta) Km app -0.6 Z PDGFRA (PDGFR alpha) Km app -6.8 Z
RAF1 (cRAF) Y340D Y341D 100 7.9 Z DYRK3 Km app 2.6 Z CAMK2A (CaMKII alpha) Km app -0.6 Z NEK9 Km app -7.2 Z
PI4KA (PI4K alpha) 10 7.8 A CSNK1D (CK1 delta) Km app 2.6 Z PRKCB1 (PKC beta I) Km app -0.7 Z PDK1 Km app -7.3 Z
HIPK2 Km app 7.8 Z ACVR2A n/a 2.5 L TTK n/a -0.7 L RPS6KB1 (p70S6K) Km app -7.8 Z
CSK Km app 7.6 Z DDR2 T654M n/a 2.5 L ZAK n/a -0.7 L STK38L (NDR2) n/a -8.4 L
PRKCG (PKC gamma) Km app 7.6 Z JAK2 Km app 2.5 Z IKBKE (IKK epsilon) Km app -0.7 Z ABL1 G250E Km app -8.5 Z
SRMS (Srm) Km app 7.5 Z HIPK3 (YAK1) Km app 2.5 Z CAMK2G (CaMKII gamma) n/a -0.8 L PRKD1 (PKC mu) Km app -8.5 Z
YES1 Km app 7.4 Z AMPK (A1/B1/G2) n/a 2.4 L TLK1 n/a -0.8 L CDK5/p35 Km app -8.6 Z
RPS6KA5 (MSK1) Km app 7.4 Z MYO3B (MYO3 beta) n/a 2.3 L MAPK12 (p38 gamma) Km app -0.8 Z PDGFRA T674I Km app -8.9 Z
TNIK n/a 7.3 L PASK Km app 2.3 Z PRKCI (PKC iota) Km app -0.8 Z BLK Km app -8.9 Z
FER Km app 7.1 Z ACVRL1 (ALK1) n/a 2.3 L PKN2 (PRK2) n/a -1.0 L PRKD2 (PKD2) Km app -9.1 Z
CDK16 (PCTK1)/cyclin Y n/a 7.0 L EGFR (ErbB1) L861Q Km app 2.2 Z PIM1 Km app -1.0 Z CSNK1G2 (CK1 gamma 2) Km app -9.3 Z
MST4 Km app 6.9 Z RPS6KA3 (RSK2) Km app 2.1 Z CDK5/p25 Km app -1.1 Z ROCK1 Km app -9.5 Z
FLT1 (VEGFR1) Km app 6.5 Z STK23 (MSSK1) Km app 2.0 Z SRPK1 Km app -1.1 Z PRKCB2 (PKC beta II) Km app -9.6 Z
DYRK1A Km app 6.4 Z ALK R1275Q n/a 2.0 L BRSK1 (SAD1) Km app -1.1 Z CSNK1G1 (CK1 gamma 1) Km app -9.9 Z
PRKCD (PKC delta) Km app 6.2 Z TBK1 Km app 2.0 Z MAP3K3 (MEKK3) n/a -1.1 L ABL2 (Arg) Km app -10.3 Z
EGFR (ErbB1) Km app 6.0 Z ACVR1B (ALK4) Km app 2.0 Z AMPK A1/B1/G1 Km app -1.2 Z STK3 (MST2) Km app -10.3 Z
CDC7/DBF4 n/a 6.0 L CDK3/cyclin E1 n/a 1.9 L WNK3 n/a -1.2 L CAMK4 (CaMKIV) Km app -10.4 Z
JAK3 Km app 6.0 Z KDR (VEGFR2) Km app 1.8 Z LATS1 n/a -1.3 L MKNK1 (MNK1) Km app -10.7 Z
MAPK13 (p38 delta) Km app 5.8 Z ULK1 n/a 1.8 L DMPK n/a -1.5 L FLT3 ITD n/a -11.6 L
FRAP1 (mTOR) Km app 5.7 Z AURKB (Aurora B) Km app 1.7 Z CDK2/cyclin A1 n/a -1.6 L CHEK2 (CHK2) Km app -11.7 Z
KIT Y823D n/a 5.6 L LRRK2 Km app 1.7 A LIMK1 n/a -1.7 L LTK (TYK1) Km app -13.1 Z
ITK Km app 5.5 Z MAP2K3 (MEK3) n/a 1.6 L DYRK1B Km app -1.8 Z JAK2 JH1 JH2 V617F Km app -13.8 Z
KIT Km app 5.3 Z DAPK1 Km app 1.6 A DDR1 n/a -1.8 L EPHA8 Km app -13.8 Z
CDK7/cyclin H/MNAT1 Km app 5.3 A EPHA6 n/a 1.6 L BTK Km app -2.0 Z EGFR (ErbB1) T790M L858R Km app -14.1 Z
RET Km app 5.2 Z MAP4K1 (HPK1) n/a 1.6 L ADRBK1 (GRK2) Km app -2.0 Z MET M1250T Km app -14.5 Z […]

T1 sequence (O00329 whole entry): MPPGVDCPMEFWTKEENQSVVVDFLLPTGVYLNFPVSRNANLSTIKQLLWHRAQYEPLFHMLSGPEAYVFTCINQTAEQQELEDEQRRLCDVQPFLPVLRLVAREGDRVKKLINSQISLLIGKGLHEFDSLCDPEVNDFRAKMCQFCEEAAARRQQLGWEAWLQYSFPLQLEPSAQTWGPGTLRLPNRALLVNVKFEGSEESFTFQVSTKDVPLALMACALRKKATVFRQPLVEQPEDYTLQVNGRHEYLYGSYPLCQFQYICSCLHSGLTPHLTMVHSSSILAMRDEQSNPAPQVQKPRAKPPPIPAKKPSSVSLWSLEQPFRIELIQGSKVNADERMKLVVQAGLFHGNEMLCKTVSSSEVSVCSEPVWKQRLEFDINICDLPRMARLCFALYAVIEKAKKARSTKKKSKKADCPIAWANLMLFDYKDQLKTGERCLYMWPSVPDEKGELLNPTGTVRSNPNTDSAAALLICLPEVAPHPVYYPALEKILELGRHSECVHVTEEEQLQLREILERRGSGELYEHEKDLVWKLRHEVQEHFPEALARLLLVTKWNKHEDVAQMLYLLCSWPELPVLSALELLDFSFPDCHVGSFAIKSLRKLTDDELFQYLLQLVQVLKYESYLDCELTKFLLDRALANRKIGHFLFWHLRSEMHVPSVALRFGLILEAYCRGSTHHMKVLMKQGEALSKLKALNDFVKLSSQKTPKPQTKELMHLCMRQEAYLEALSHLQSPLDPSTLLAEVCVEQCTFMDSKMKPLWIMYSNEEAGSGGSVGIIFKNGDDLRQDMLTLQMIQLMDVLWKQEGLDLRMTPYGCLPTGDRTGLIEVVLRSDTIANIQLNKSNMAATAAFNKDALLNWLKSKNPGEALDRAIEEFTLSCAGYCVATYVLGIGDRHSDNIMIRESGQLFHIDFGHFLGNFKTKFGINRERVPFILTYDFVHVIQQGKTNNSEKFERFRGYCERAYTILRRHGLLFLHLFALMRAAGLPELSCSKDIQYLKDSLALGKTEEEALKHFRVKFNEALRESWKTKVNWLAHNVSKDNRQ
T1 sequence (P27986 whole entry partner): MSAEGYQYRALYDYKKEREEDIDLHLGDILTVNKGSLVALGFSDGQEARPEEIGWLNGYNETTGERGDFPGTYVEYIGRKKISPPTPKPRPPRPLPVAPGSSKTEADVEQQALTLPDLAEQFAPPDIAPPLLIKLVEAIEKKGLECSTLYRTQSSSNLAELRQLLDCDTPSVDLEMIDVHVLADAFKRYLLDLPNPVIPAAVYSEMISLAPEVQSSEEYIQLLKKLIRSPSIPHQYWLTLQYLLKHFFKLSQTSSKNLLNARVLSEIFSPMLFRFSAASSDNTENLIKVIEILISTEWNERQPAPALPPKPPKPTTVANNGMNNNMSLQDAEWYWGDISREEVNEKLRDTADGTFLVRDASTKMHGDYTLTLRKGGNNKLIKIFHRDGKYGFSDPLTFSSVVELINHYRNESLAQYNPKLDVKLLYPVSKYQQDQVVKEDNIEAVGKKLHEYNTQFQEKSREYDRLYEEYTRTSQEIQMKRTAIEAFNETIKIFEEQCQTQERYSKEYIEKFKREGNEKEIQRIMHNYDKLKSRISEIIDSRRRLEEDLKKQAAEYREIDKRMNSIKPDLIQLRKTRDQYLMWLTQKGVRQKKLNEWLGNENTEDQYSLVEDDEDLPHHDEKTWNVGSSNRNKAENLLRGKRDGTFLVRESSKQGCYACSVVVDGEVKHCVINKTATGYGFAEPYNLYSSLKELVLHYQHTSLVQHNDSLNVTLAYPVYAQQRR

Broadly, the % inhibition is the drop in the measured response relative to a control, in per cent. High values mean a response far below the control, low ones a response near the control. What is called inhibition is the relative decrease from the control value, in per cent. A lower inhibition goes with a response near the control. For the compound `CN(C(=O)CN1CCOCC1)c1ccc2sc3c(-c4cccc5c(=O)cc(N6CC7CCC(C6)O7)oc45)cccc3c2c1` [NU5455], the inhibition at 1 µM worked out at 57.5%. Under “1 µM”, the “% inhibition” value is listed as 57%.
